Results on 16 molecules are retold here after patent US6083987A, “Phenylenediamine derivative, radical scavenger, brain-infarction depressant, and brain-edema depressant” (Shiseido Co., Ltd., priority 1998, dated 2000).

The first experiment concerns rat brain homogenate. In words: Lipid Peroxidation Inhibition Test. To be noted: 1 μM sample compound, pH 7.4, 1 hour at 37° C., TBA method. In kind it is biochemical, rat (SD-line male). From the text: Lipid Peroxidation Inhibition Test
In an automatic oxidation system using a rat brain homogenate, whether a sample compound having a radical-eliminating effect can actually have a lipid peroxidation inhibitory activity or not is investigated and its effectiveness is comparatively studied.
With reference to method of Shimamoto et. al. (Clinical Study of Free Radical, vol. 1, pp. 91-95, 1987), the following method was used. An SD-line male rat (7-week-old) was bled to death with a physiological saline perfusion under pentobarbital anesthesia. Then, its hemisphaerium cerebri was taken out and, while being cooled with ice, a 19-fold amount of 20 mM phosphoric acid buffer (pH 7.4) was added thereto. The resulting mixture was homogenized. To this mixture, 1 μM of the sample compound was added. After the resulting mixture was incubated for 1 hour at 37° C., the amount of generated lipid peroxide was determined by TBA method. Namely, to 0.2 ml of the homogenate, 0.2 ml of 8.1% SDS, 1.5 ml of 20% acetic acid buffer (pH 3.5), and 1.5 ml of 0.8% TBA reagent were added. The resulting mixture was incubated for 1 hour at 95° C. and then rapidly cooled with ice. Subsequently, 1 ml of distilled water and 5 ml of n-butanol/pyridine mixed solution (15:1, v/v) were added thereto and the mixture was stirred. After the mixture was centrifuged, the butanol layer was collected therefrom and its absorbance (a) at 535 nm was measured as compared with a blank. Also, as a reference liquid, a 10 μM solution of 1,1,3,3-tetraethoxypropane (TEP) was added in place of the brain homogenate and its absorbance (A) was measured in a similar manner. In the blank, a phosphoric acid buffer was used in place of the brain homogenate. The peroxide concentration was calculated by the following equation and defined as the brain lipid peroxide amount: […]
peroxide concentration (nmol/g wet weight)=a/A×100
The sample compound was used as being dissolved in dimethylsulfoxide (DMSO). While the final concentration of DMSO was 2%, no influence upon the present system was observed.
The lipid peroxidation inhibitory rate of the sample compound at the concentration of 1 μM was calculated from the amount of increase in lipid peroxide in solvent-added group (M) and that in sample compound added group (m): […]
lipid peroxidation inhibitory rate (%)={1-(m/M)}×100
As to `CC(C)Cc1cc(C(=O)Nc2ccc(N(C)C)cc2)ccc1O` [Example 1], the “Lipid peroxidation inhibitory ratio” value was found to be 40.1%.
The same measure, in the same setting: the result for `CC(C)Cc1ccc(O)c(C(=O)Nc2ccc(N(C)C)cc2)c1` [Example 2] reads 26.8%; that for `CC(C)Cc1cccc(C(=O)Nc2ccc(N(C)C)cc2)c1O` [Example 3], 22.7%.
The same measure, in the same setting: the result for `CC(C)Cc1ccc(C(=O)Nc2ccc(N(C)C)cc2)cc1O` [Example 4] reads 13.5%; that for `CC(C)Cc1nccc(C(=O)Nc2ccc(N(C)C)cc2)c1O` [Example 5], 29.5%.
On the same count and under the same terms, with `COc1ccc(COc2ccc(C(=O)Nc3ccc(N(C)C)cc3)cc2CC(C)C)cc1` [Example 6] the figure was 41.7%; with `COc1ccc(C(=O)Nc2ccc(N(C)C)cc2)cc1CC(C)C` [Example 7], 48.9%.
Regarding `CC(C)=CCC/C(C)=C/COc1ccc(C(=O)Nc2ccc(N(C)C)cc2)cc1CC(C)C` [Example 8], the “Lipid peroxidation inhibitory ratio” value was 41.7%.
On the same count and under the same terms, the result for `CC(C)Cc1cc(C(=O)Nc2ccc(N(C)C)cc2)ccc1OCc1ccccc1` [Example 9] reads 28.1%.
Same read-out and setting: the result for `CC(C)Cc1cccc(C(=O)Nc2ccc(N(C)C)cc2)c1OCc1ccccc1` [Example 10] reads 28.2%; that for `CC(C)Cc1cc(S(=O)(=O)Nc2ccc(N(C)C)cc2)ccc1O` [Example 12], 24.2%.
The same measure, in the same setting: with `CC(C)Cc1cc(S(=O)(=O)Nc2ccc(N(C)C)cc2)ccc1OC(=O)c1ccccc1` [Example 13] the figure was 13.4%; with `CC(C)Cc1cc(C(=S)Nc2ccc(N(C)C)cc2)ccc1O` [Example 14], 33.9%; with `CC(C)Cc1cc(CC(=O)Nc2ccc(N(C)C)cc2)ccc1OCc1ccccc1` [Example 15], 24.8%.
With `CC(C)Cc1cc(CC(=O)Nc2ccc(N(C)C)cc2)ccc1O` [Example 16], the “Lipid peroxidation inhibitory ratio” value was 14.4%.
As for `CC(C)Cc1cccc(CC(=O)Nc2ccc(N(C)C)cc2)c1O` [Example 17], the “Lipid peroxidation inhibitory ratio” value is on record as 10.4%.

The next experiment has as its system middle cerebral artery (MCA) infarction model. Description: Brain Infarction Inhibition Test (MCA infarction model). The class given is in vivo, rat (Crj:Fischer-344 line male). As to conditions: dose was 100 mg/kg; 2 hours ischemia, 2 hours reperfusion; i.p. 20 minutes before or i.v. simultaneously with reperfusion; * p < 0.05. On the procedure:
Brain Infarction Inhibition Test i) Meaning The brain infarction inhibitory activity in vivo is studied. According to this test, it can be judged whether the peripherally administered sample compound can pass through the blood-brain barrier or not. ii) Method For the experiment, 9 to 10-week-old Crj:Fischer-344 line male rats were used. Each of all the soluble sample compounds was dissolved in a physiological saline and then administered intravenously or intraperitoneally. Each of insoluble ones was suspended in a physiological saline containing 0.1% Tween 80 and administered intraperitoneally. Also, those dissolved in a physiological saline containing 0.5% Tween 80 were used for intravenous administration. The intraperitoneal administration was effected 20 minutes before reperfusion, whereas the intravenous administration was effected simultaneously with reperfusion. As a control, only the base was administered. The surgical operation was effected in a manner similar to method of Koizumi et al. (Japanese Journal of Stroke, vol. 8, pp. 1-8, 1986) so as to form a middle cerebral artery (MCA) infarction model. Namely, the rat was subjected to inhalation anesthesia with 4% halothane and then, while the anesthesia was maintained with 1% halothane, fixed on face-up position. The neck portion was subjected to median incision such that the common carotid artery and outer carotid artery around the right carotid artery branching portion were separated from their surrounding connecting tissues and then ligated with a silk string. Further, the inner carotid artery starting portion was surrounded by a silk string so as to be ready for ligation and fixation which would be effected after insertion of an embolus. Then, the common carotid artery was incised and, from there, an embolus having a length of about 16 mm, in which a 4-0 surgical nylon string had been coated with a dental impression material, was inserted toward the inner carotid artery and its end near the nylon string was ligated and fixed to the inner carotid artery with the above mentioned silk string. Also, during the surgical operation, the body temperature was maintained by a small animal body temperature control apparatus in order to prevent it from lowering upon the whole anesthesia processes. According to the foregoing operation, brain ischemia was effected for 2 hours and then the embolus was pulled out so as to effect reperfusion. The brain was taken out two hours after the reperfusion and then 4 pieces of crown-like separated strips were prepared by 2-mm intervals from the lambda level toward the downstream. These strips were immersed in 2% triphenyltetrazorium chloride (TTC) solution and incubated at 37° C., for 10 minutes. Thus dyed brain strips were immersed in a phosphate-buffered 8% formalin solution for 1 to 2 days and then photographed under a stereo-microscope ([…]). Thereafter, for each crown-like strip, the area of infarction region was measured by Planimeter ([…]) Judgment Standard The effects of the sample compound were represented by its individual inhibitory rate (%) which used the total area of the infarction regions, which had not been dyed with TTC in the 4 strips. The significance test was effected by student t-test. individual inhibitory rate(%)={1-(value in sample group/value in control group)}×100
As for `CC(C)Cc1cc(C(=O)Nc2ccc(N(C)C)cc2)ccc1O` [Example 1], the “Brain infarction inhibitory ratio” value was 53.0%.
Still for that read-out and setting: with `CC(C)Cc1ccc(O)c(C(=O)Nc2ccc(N(C)C)cc2)c1` [Example 2] the figure was 41.2%; with `CC(C)Cc1nccc(C(=O)Nc2ccc(N(C)C)cc2)c1O` [Example 5], 19.0%.
On the same count and under the same terms, with `CC(C)Cc1cc(C(=O)Nc2ccc(N(C)C)cc2)ccc1OCc1ccccc1` [Example 9] the figure was 39.9%.
The same measure, in the same setting: with `CC(C)Cc1cccc(C(=O)Nc2ccc(N(C)C)cc2)c1OCc1ccccc1` [Example 10] the figure was 18.7%; with `CC(C)Cc1cc(S(=O)(=O)Nc2ccc(N(C)C)cc2)ccc1O` [Example 12], 0.7%.
As to `CC(C)Cc1cc(CC(=O)Nc2ccc(N(C)C)cc2)ccc1OCc1ccccc1` [Example 15], the “Brain infarction inhibitory ratio” value is 2.8%.

Still in this experiment, the particulars now being: rat, in vivo.
For the molecule `CC(C)Cc1cccc(C(=O)Nc2ccc(N(C)C)cc2)c1OCc1ccccc1` [Example 10], the “brain infarction inhibition activity, in words” value was “showed brain infarction inhibition tendency”.

The subject of the next experiment is MCA infarction reperfusion model. In words: Brain Edema Inhibition Test (MCA infarction reperfusion model). As to conditions: dose was 100 mg/kg; i.p. 20 minutes before reperfusion; two-hour ischemia and two-hour reperfusion; brain moisture content. In kind it is in vivo, rat (Fischer). An excerpt: Brain Edema Inhibition Test
The brain edema inhibitory activity in vivo is confirmed. According to this test, it can be judged whether the peripherally administered sample compound can pass through the blood-brain barrier or not.
By using a 7 to 9-week-old Fischer rat (Charles River Japan Inc.), an MCA infarction reperfusion model was formed according to method of Koizumi et al. (Japanese Journal of Stroke, vol. 8, pp. 1-8, 1986). Namely, the rat was fixed face-up position under anesthesia with 2% halothane and then its neck portion was subjected to median incision so as to separate the right common carotid artery therefrom to the carotid artery branching portion while carefully keeping the vagus nerve. The outer carotid artery and inner carotid artery around the carotid artery branching portion were separated from their surrounding connecting tissues. Then, the common carotid artery and outer carotid artery were ligated with a silk string. Further, the inner carotid artery starting portion was surrounded by a silk string so as to be ready for ligation and fixation which would be effected after insertion of an embolus string. Then, the common carotid artery was incised and, from there, an embolus string was inserted toward the inner carotid artery by about 15 to 16 mm and then ligated and fixed to the inner carotid artery with the above mentioned silk string. As a result of the foregoing operation, the tip of the embolus string proceeded beyond the MCA branching portion so as to enter the anterior cerebral artery by about 1 to 2 mm and formed infarction at the MCA inlet by the body portion of the embolus string. After the embolus string blocking the MCA starting portion was left for a predetermined time, it was pulled out under halothane anesthesia to effect reperfusion. Here, in this model, since the right common carotid artery has been ligated, the blood flow is supposed to be restarted from the left inner carotid artery and vertebral-basilar by way of the anterior and posterior communicating arteries. This experiment effected two-hour ischemia and two-hour reperfusion.
Here, the embolus string was prepared in the following manner. Namely, a tip of a 4-0 surgical nylon string having a total length of 16 mm was held over an alcohol lamp so as to form a ball with a diameter of 0.2 to 0.3 mm and then a length of about 5 mm on the nearer side therefrom was coated with a dental impression material with reference to the size of the ball, thereby forming the embolus string.
The brain moisture content was measured by wet and dry weight method. […] Further, after being dried at 110° C. for 24 hours, their weight was measured again to yield dry weight. From thus obtained wet weight and dry weight, the brain moisture content was determined by the following equation: […]
As for `CC(C)Cc1cc(C(=O)Nc2ccc(N(C)C)cc2)ccc1O` [Example 1], the “Brain edema inhibitory ratio” value was 2.0%.
Still for that read-out and setting: the result for `CC(C)Cc1nccc(C(=O)Nc2ccc(N(C)C)cc2)c1O` [Example 5] reads 38.1%; that for `COc1ccc(COc2ccc(C(=O)Nc3ccc(N(C)C)cc3)cc2CC(C)C)cc1` [Example 6], 1.5%; that for `CC(C)Cc1cc(C(=O)Nc2ccc(N(C)C)cc2)ccc1OCc1ccccc1` [Example 9], 19.2%.

Test system in a further experiment: not listed separately
In words: Radical Eliminating Effect Test (DPPH). The class given is biochemical. To be noted: 10 μM sample compound, 0.1 mM DPPH, pH 5.5, 30 minutes, room temperature. As for the experimental part: Radical Eliminating Effect Test (DPPH)
Radical-eliminating ability of a sample drug is studied in terms of its reaction amount and reactivity with respect to α, α-diphenyl-β-picrylhydrazyl (DPPH) which is a stable radical.
Method of Uchiyama et al. (Japanese Journal of Pharmacology, vol. 88, pp. 678-683, 1968) was used. Namely, to a solution containing 20 mM acetic acid buffer (pH 5.5), 60% ethanol, and 10 μM of a sample compound, DPPH was added so as to yield a concentration of 0.1 mM. The resulting mixture was stirred and then its change in absorbance (ABS) at 517 nm was measured for 30 minutes at room temperature. Here, the sample compound was used as being dissolved in dimethylsulfoxide (DMSO). While the final concentration of DMSO was 10%, no influence upon the present system was observed.
The DPPH reducing ratio of the sample compound at the concentration of 10 μM was calculated by the following equation:
reducing ratio (%)={1-(ABS after 30 minutes/initial ABS)}×100
For `CC(C)Cc1cc(C(=O)Nc2ccc(N(C)C)cc2)ccc1O` [Example 1], the DPPH reducing ratio is recorded as 22.9%.
The same measure, in the same setting: with `CC(C)Cc1ccc(O)c(C(=O)Nc2ccc(N(C)C)cc2)c1` [Example 2] the figure was 17.7%.
For the molecule `CC(C)Cc1cccc(C(=O)Nc2ccc(N(C)C)cc2)c1O` [Example 3], the DPPH reducing ratio turned out to be 22.5%.
On to `CC(C)Cc1ccc(C(=O)Nc2ccc(N(C)C)cc2)cc1O` [Example 4], for which the DPPH reducing ratio is on record as 16.4%.
On the same count and under the same terms, with `CC(C)Cc1nccc(C(=O)Nc2ccc(N(C)C)cc2)c1O` [Example 5] the figure was 16.1%; with `COc1ccc(COc2ccc(C(=O)Nc3ccc(N(C)C)cc3)cc2CC(C)C)cc1` [Example 6], 25.1%.
On the same count and under the same terms, the result for `COc1ccc(C(=O)Nc2ccc(N(C)C)cc2)cc1CC(C)C` [Example 7] reads 20.7%; that for `CC(C)=CCC/C(C)=C/COc1ccc(C(=O)Nc2ccc(N(C)C)cc2)cc1CC(C)C` [Example 8], 21.2%.
Still for that read-out and setting: the result for `CC(C)Cc1cc(C(=O)Nc2ccc(N(C)C)cc2)ccc1OCc1ccccc1` [Example 9] reads 25.5%; that for `CC(C)Cc1cccc(C(=O)Nc2ccc(N(C)C)cc2)c1OCc1ccccc1` [Example 10], 11.5%; that for `CC(C)Cc1cc(S(=O)(=O)Nc2ccc(N(C)C)cc2)ccc1O` [Example 12], 61.8%.
For `CC(C)Cc1cc(S(=O)(=O)Nc2ccc(N(C)C)cc2)ccc1OC(=O)c1ccccc1` [Example 13], the DPPH reducing ratio is recorded as 58.9%.
The same measure, in the same setting: with `CC(C)Cc1cc(C(=S)Nc2ccc(N(C)C)cc2)ccc1O` [Example 14] the figure was 18.3%; with `CC(C)Cc1cc(CC(=O)Nc2ccc(N(C)C)cc2)ccc1OCc1ccccc1` [Example 15], 12.8%; with `CC(C)Cc1cc(CC(=O)Nc2ccc(N(C)C)cc2)ccc1O` [Example 16], 21.0%.
Still for that read-out and setting: with `CC(C)Cc1cccc(CC(=O)Nc2ccc(N(C)C)cc2)c1O` [Example 17] the figure was 18.7%.
